From patent EP2378291A1, “Lacosamide detection assay” (UCB Pharma GmbH, priority 2010, dated 2011) come the findings set out here.

Each structure is given as a SMILES string. Where two headings read alike, the source gives them in different places.

Series [1] is described as follows: Clinical study: saliva and plasma samples taken in parallel, correlation of lacosamide concentrations. The class given is in vivo, human. The following applies: for Kp: human, saliva. The procedure:
One embodiment of the present disclosure relates to the use of saliva samples as a tool to assess the concentration of lacosamide in the body of a mammal, particularly a human being. […] Preferably, saliva samples should be taken at least about 1 hour, preferably at least about 2 hours after an actual administration of lacosamide to said mammal to allow a steady state concentration to form, and to allow the proportional distribution of lacosamide into the saliva.
Accordingly, one embodiment of the current invention relates to the use of a saliva sample to assess the concentration of lacosamide in the body of a mammal, particularly in the plasma of a patient This can be done based on the recognition that the concentration of lacosamide in saliva is about 1.17 times the concentration in plasma. Based on the measurement of lacosamide in saliva, the concentration in plasma can be easily assessed using the equation C plasma= C saliva x about 0.855 (see Example 3 in the experimental part). The determination of lacosamide in saliva should be done in the steady state, which is usually reached after about one hour to two hours after the last drug administration to the mammal/patient from which the saliva sample is to be taken.
In a clinical study saliva and plasma samples have been taken in parallel.
The concentrations of lacosamide can be calculated using the following equations: Saliva concentration of lacosamide = 0.065 + 1.1697*plasma concentration of lacosamide [formula] Plasma concentration of lacosamide = 0.855*saliva concentration of lacosamide [formula]
These equations were validated by comparing measured lacosamide plasma concentrations with plasma concentrations predicted from measured saliva concentrations.

A short description of series [2]: Lacosamide plasma concentration of a patient, HPLC-UV assay with internal standard. It is filed as in vivo. To be noted: human, patient taking 100 mg twice a day, sample 7 h after the last administration, read-out: measured lacosamide plasma concentration. The procedure: 100 µL of plasma are transferred into Eppendorf tubes.
Calibration samples are added 10 µL working solution.
Study samples are added 10 µL of working solution int standard
After mixing 300 µL of methanol were added, the mixture is vortexed again and centrifuged
10 minutes at room temperature. 70 µL of the supernatant were transferred into a autosamplervial.
15 µL were injected into the HPLC-system.
For calibration the mean response factor for the peakheight ratios at 10 µg/mL was calculated: • RF = peakheight lacosamide/ peakheight int. Std. • Concentration in samples were calculated: 10/RFcalibration*RFsample
A patient taking 100 mg twice a day is suffering from seizures. A sample is taken 7 h after the last administration of lacosamide. The measured lacosamide plasma concentration is 1.9 µg/mL. The newly requested Cmax is 5 µg/mL, and the new dose has to be dose_new = 100⋅(5⋅e^(-0.05⋅t))/(1.9⋅e^(-0.05⋅1h)) = 195 mg bid (dose has to be doubled) [formula]

Series [3] is described as follows: Expected plasma Cmax at bid doses, used for individual dose adaptation. The class given is in vivo. As for the experimental part: Based on the determination of the actual lacosamide concentration in plasma (Cmessured) measured at time t (in hours after actual administration) and the comparison with the target concentration, an individual dosing may be adapted according to the following formula dose_new = dose_old⋅(Cmax,expected ⋅e^(-0.05⋅t))/(Cmeasured ⋅e^(-0.05⋅1h)) [formula]
The expected Cmax is usually at about 5, 10, 15, or 20 µg/mL for dose 100, 200, 300, or 400 mg bid.

As for `COC[C@@H](NC(C)=O)C(=O)NCc1ccccc1` [Lacosamide, (R)-2-acetamido-N-benzyl-3-methoxypropionamide], the “correlation between lacosamide concentrations in saliva and plasma” value in series [1] (Figure 2) is listed as “excellent correlation”. For the same compound, the Kp in series [1] (regression equation with intercept 0.065, read-out: slope of Saliva concentration of lacosamide versus plasma concentration of lacosamide) is 1.17; in series [1] (steady state, about one to two hours after last administration, read-out: concentration of lacosamide in saliva relative to the concentration in plasma) it was about 1.17. Moreover, the concentration at 7 h in series [2] stood at 1900 ng/mL. Besides, the Cmax is about 5000 ng/mL in series [3] (dose 100 mg bid), about 10000 ng/mL in series [3] (dose 200 mg bid), about 15000 ng/mL in series [3] (dose 300 mg bid) and about 20000 ng/mL in series [3] (dose 400 mg bid).
